{
  "source": "paper PMC9001978",
  "about": "“Determining the Effects of Differential Expression of GRKs and β-arrestins on CLR-RAMP Agonist Bias” (Frontiers in Physiology, 2022)",
  "key": {"[1]": {"target": "T1, CLR-RAMP1 (Homo sapiens, UniProt O60894+Q16602)", "T1 sequence (Q16602 23-461)": "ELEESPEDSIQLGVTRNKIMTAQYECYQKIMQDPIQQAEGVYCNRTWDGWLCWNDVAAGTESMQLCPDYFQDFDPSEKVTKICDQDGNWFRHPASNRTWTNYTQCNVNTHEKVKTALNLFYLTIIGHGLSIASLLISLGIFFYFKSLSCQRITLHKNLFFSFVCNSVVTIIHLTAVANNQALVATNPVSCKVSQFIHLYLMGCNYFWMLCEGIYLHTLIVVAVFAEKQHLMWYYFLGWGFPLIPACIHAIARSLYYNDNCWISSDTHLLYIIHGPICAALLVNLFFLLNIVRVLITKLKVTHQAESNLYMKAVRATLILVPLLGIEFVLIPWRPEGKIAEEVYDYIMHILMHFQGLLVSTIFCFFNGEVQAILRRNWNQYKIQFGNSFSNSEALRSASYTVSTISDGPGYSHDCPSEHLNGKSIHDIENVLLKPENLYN", "T1 sequence (O60894 27-148)": "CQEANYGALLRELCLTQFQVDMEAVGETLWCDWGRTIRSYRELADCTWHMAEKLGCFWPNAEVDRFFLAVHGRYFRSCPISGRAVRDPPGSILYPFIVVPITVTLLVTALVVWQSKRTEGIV", "assay": "β-arrestin1 recruitment to CLR-RAMP1 (BRET)", "settings": "HEK293T, n = 3"}, "[2]": {"target": "T1, CLR-RAMP1", "assay": "β-arrestin2 recruitment to CLR-RAMP1 (BRET)", "settings": "HEK293T, n = 3"}, "[3]": {"target": "T2, CLR-RAMP3 (Homo sapiens, UniProt O60896+Q16602)", "T2 sequence (Q16602 23-461)": "as the sequence (Q16602 23-461) above", "T2 sequence (O60896 24-148)": "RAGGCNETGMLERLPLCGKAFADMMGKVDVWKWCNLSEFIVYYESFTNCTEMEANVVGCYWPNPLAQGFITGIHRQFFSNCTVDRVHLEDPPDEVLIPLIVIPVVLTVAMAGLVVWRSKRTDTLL", "assay": "β-arrestin1 recruitment to CLR-RAMP3 (BRET)", "settings": "HEK293T, n = 3"}, "[4]": {"target": "T1, CLR-RAMP1", "assay": "cAMP accumulation at CLR-RAMP1"}, "[5]": {"target": "T2, CLR-RAMP3", "assay": "β-arrestin2 recruitment to CLR-RAMP3 (BRET)", "settings": "HEK293T, n = 3"}, "[6]": {"tested_on": "HEK293T cells", "assay": "cAMP accumulation in HEK293T cells with endogenous CLR and RAMPs", "format": "cell-based", "settings": "far lower potency than expected of CLR with any RAMP"}, "[7]": {"target": "T1, CLR-RAMP1", "assay": "Internalisation of CLR-RAMP1 (BRET CLR-Nluc / RIT-Venus)", "settings": "HEK293T, CLR-Nluc + FLAG-RAMP1, RIT-Venus BRET; mean ± SEM, n = 3-4"}, "[8]": {"target": "T2, CLR-RAMP3", "assay": "Internalisation of CLR-RAMP3 (BRET CLR-Nluc / RIT-Venus)", "settings": "HEK293T, CLR-Nluc + FLAG-RAMP3, RIT-Venus BRET; mean ± SEM, n = 4-5"}},
  "data": [
    {"smiles": "CC[C@H](C)[C@H](NC(=O)[C@H](CCC(N)=O)NC(=O)[C@H](Cc1c[nH]cn1)NC(=O)[C@H](C)NC(=O)[C@H](CC(C)C)NC(=O)[C@H](CCCCN)NC(=O)[C@H](CCC(N)=O)NC(=O)[C@@H](NC(=O)[C@@H](NC(=O)[C@@H]1CSSC[C@H](NC(=O)CNC(=O)[C@H](Cc2ccccc2)NC(=O)[C@H](CO)NC(=O)[C@H](CCCNC(=N)N)NC(=O)[C@H](CC(C)C)NC(=O)CNC(=O)[C@H](CCC(N)=O)NC(=O)[C@H](Cc2ccccc2)NC(=O)[C@H](CC(N)=O)NC(=O)[C@H](CC(N)=O)NC(=O)[C@H](CCSC)NC(=O)[C@H](CO)NC(=O)[C@H](CCC(N)=O)NC(=O)[C@H](CCCNC(=N)N)NC(=O)[C@@H](N)Cc2ccc(O)cc2)C(=O)N[C@@H](CCCNC(=N)N)C(=O)N[C@@H](Cc2ccccc2)C(=O)NCC(=O)N[C@@H]([C@@H](C)O)C(=O)N1)[C@@H](C)O)C(C)C)C(=O)N[C@@H](Cc1ccc(O)cc1)C(=O)N[C@@H](CCC(N)=O)C(=O)N[C@@H](Cc1ccccc1)C(=O)N[C@H](C(=O)N[C@@H](CC(=O)O)C(=O)N[C@@H](CCCCN)C(=O)N[C@@H](CC(=O)O)C(=O)N[C@@H](CCCCN)C(=O)N[C@@H](CC(=O)O)C(=O)N[C@@H](CC(N)=O)C(=O)N[C@H](C(=O)N[C@@H](C)C(=O)N1CCC[C@H]1C(=O)N[C@@H](CCCNC(=N)N)C(=O)N[C@@H](CO)C(=O)N[C@@H](CCCCN)C(=O)N[C@H](C(=O)N[C@@H](CO)C(=O)N1CCC[C@H]1C(=O)N[C@@H](CCC(N)=O)C(=O)NCC(=O)N[C@@H](Cc1ccc(O)cc1)C(N)=O)[C@@H](C)CC)C(C)C)[C@@H](C)O", "note": "[AM, adrenomedullin]", "values": [
      {"measurement": "Emax, β-arrestin1 recruitment", "setting": "[1]; CLR-Nluc + FLAG-RAMP1 + β-arrestin1-YFP, BRET, mean ± SEM", "result": "~63 ± 14 BRET units (x10^-3)"},
      {"measurement": "Emax, β-arrestin1 recruitment", "setting": "[1]; GRK2 overexpressed", "result": "~57 ± 7 BRET units (x10^-3)"},
      {"measurement": "Emax, β-arrestin1 recruitment", "setting": "[1]; GRK3 overexpressed", "result": "~43 ± 5 BRET units (x10^-3)"},
      {"measurement": "Emax, β-arrestin1 recruitment", "setting": "[1]; GRK4 overexpressed", "result": "~39 ± 7 BRET units (x10^-3)"},
      {"measurement": "Emax, β-arrestin1 recruitment", "setting": "[1]; GRK6 overexpressed", "result": "~11 ± 2 BRET units (x10^-3)"},
      {"measurement": "Emax, β-arrestin1 recruitment", "setting": "[1]; GRK series: Vector", "result": "~63 ± 14 BRET units (x10^-3)"},
      {"measurement": "Emax, β-arrestin2 recruitment", "setting": "[2]; CLR-Nluc + FLAG-RAMP1 + β-arrestin2-YFP, BRET, mean ± SEM", "result": "~98 ± 10 BRET units (x10^-3)"},
      {"measurement": "Emax, β-arrestin2 recruitment", "setting": "[2]; GRK2 overexpressed", "result": "~54 ± 4 BRET units (x10^-3)"},
      {"measurement": "Emax, β-arrestin2 recruitment", "setting": "[2]; GRK3 overexpressed", "result": "~47 ± 3 BRET units (x10^-3)"},
      {"measurement": "Emax, β-arrestin2 recruitment", "setting": "[2]; GRK4 overexpressed", "result": "~48 ± 3 BRET units (x10^-3)"},
      {"measurement": "Emax, β-arrestin2 recruitment", "setting": "[2]; GRK5 overexpressed", "result": "11 ± 1 BRET units (x10^-3)"},
      {"measurement": "Emax, β-arrestin2 recruitment", "setting": "[2]; GRK series: Vector", "result": "~98 ± 10 BRET units (x10^-3)"},
      {"measurement": "Emax, β-arrestin1 recruitment", "setting": "[3]; CLR-Nluc + FLAG-RAMP3 + β-arrestin1-YFP, BRET, mean ± SEM", "result": "8 ± 1 BRET units (x10^-3)"},
      {"measurement": "Emax, β-arrestin1 recruitment", "setting": "[3]; GRK2 overexpressed", "result": "6 ± 1 BRET units (x10^-3)"},
      {"measurement": "Emax, β-arrestin1 recruitment", "setting": "[3]; GRK3 overexpressed", "result": "5 ± 1 BRET units (x10^-3)"},
      {"measurement": "Emax, β-arrestin1 recruitment", "setting": "[3]; GRK4 overexpressed", "result": "4 ± 1 BRET units (x10^-3)"},
      {"measurement": "Emax, β-arrestin1 recruitment", "setting": "[3]; GRK series: Vector", "result": "7 ± 1 BRET units (x10^-3)"},
      {"measurement": "Emax, cAMP accumulation", "setting": "[4]; HEK293T, CLR-Nluc + FLAG-RAMP1, 30 min stimulation, LANCE ultra, mean ± SEM, n = 3-4", "result": "84.7 ± 3.0 percentage 100 μM forskolin"},
      {"measurement": "Emax, cAMP accumulation", "setting": "[4]; HEK293T, GRK2 overexpressed, 30 min, n = 3", "result": "61.6 ± 3.7 percentage 100μM forskolin"},
      {"measurement": "Emax, cAMP accumulation", "setting": "[4]; HEK293T, GRK3 overexpressed, 30 min, n = 3", "result": "46.5 ± 2.9 percentage 100μM forskolin"},
      {"measurement": "Emax, cAMP accumulation", "setting": "[4]; HEK293T, GRK4 overexpressed, 30 min, n = 3", "result": "51.3 ± 5.3 percentage 100μM forskolin"},
      {"measurement": "Emax, cAMP accumulation", "setting": "[4]; HEK293T, GRK5 overexpressed, 30 min, n = 3", "result": "40.0 ± 4.8 percentage 100μM forskolin"},
      {"measurement": "Emax, cAMP accumulation", "setting": "[4]; HEK293T, GRK6 overexpressed, 30 min, n = 3", "result": "58.9 ± 7.4 percentage 100μM forskolin"},
      {"measurement": "Emax, cAMP accumulation", "setting": "[4]; HEK293T, β-arrestin1 overexpressed, 500 μM IBMX, mean ± SEM, n = 4", "result": "98.6 ± 2.4 percentage 100 μM forskolin"},
      {"measurement": "Emax, cAMP accumulation", "setting": "[4]; HEK293T, β-arrestin2 overexpressed, 500 μM IBMX, mean ± SEM, n = 3-4", "result": "99.3 ± 2.1 percentage 100 μM forskolin"},
      {"measurement": "Emax, cAMP accumulation", "setting": "[4]; HEK293 cells, 500 μM IBMX, mean ± SEM, n = 4", "result": "81.1 ± 7.9 percentage 100 μM forskolin"},
      {"measurement": "Emax, cAMP accumulation", "setting": "[4]; HEK293Δβ-arr1/2 cells, 500 μM IBMX, mean ± SEM, n = 4", "result": "89.0 ± 5.4 percentage 100 μM forskolin"},
      {"measurement": "Emax, cAMP accumulation", "setting": "[4]; pre-treated with 100 μM barbadin, 30 min, mean ± SEM, n = 5-6", "result": "~91.4 ± 5.5 percentage 100μM forskolin"},
      {"measurement": "Emax, cAMP accumulation", "setting": "[4]; pre-treated with 1% DMSO, 30 min, mean ± SEM, n = 5-6", "result": "88.0 ± 5.2 percentage 100μM forskolin"},
      {"measurement": "Emax, β-arrestin2 recruitment", "setting": "[5]; CLR-Nluc + FLAG-RAMP3 + β-arrestin2-YFP, BRET, mean ± SEM", "result": "11 ± 1 BRET units (x10^-3)"},
      {"measurement": "Emax, β-arrestin2 recruitment", "setting": "[5]; GRK2 overexpressed", "result": "8 ± 1 BRET units (x10^-3)"},
      {"measurement": "Emax, β-arrestin2 recruitment", "setting": "[5]; GRK3 overexpressed", "result": "11 ± 2 BRET units (x10^-3)"},
      {"measurement": "Emax, β-arrestin2 recruitment", "setting": "[5]; GRK4 overexpressed", "result": "8 ± 1 BRET units (x10^-3)"},
      {"measurement": "Emax, β-arrestin2 recruitment", "setting": "[5]; GRK series: Vector", "result": "11 ± 1 BRET units (x10^-3)"},
      {"measurement": "cAMP response via endogenous low levels of CLR and RAMPs", "setting": "[6]", "result": "small response"},
      {"measurement": "Emax, internalisation", "setting": "[7]", "result": "~-44 ± 42 BRET units (x10^-3)"},
      {"measurement": "Emax, internalisation", "setting": "[8]", "result": "-5 ± 1 BRET units (x10^-3)"}
    ]}
  ]
}
